The text below walks through data of patent US11578079B2, “SUMO inhibitor compounds and uses thereof” (CITY OF HOPE, priority 2018, dated 2023).

Assay [1] has as its system c-Myc. Kind of assay: c-Myc activity (Table I, biological activities). Also on record: key: + (less active); ++ (active); +++ (most active).
For assay [2], the target named is T1, SUMO (Homo sapiens, UniProt Q9UBT2).
T1 sequence (Q9UBT2 1-640): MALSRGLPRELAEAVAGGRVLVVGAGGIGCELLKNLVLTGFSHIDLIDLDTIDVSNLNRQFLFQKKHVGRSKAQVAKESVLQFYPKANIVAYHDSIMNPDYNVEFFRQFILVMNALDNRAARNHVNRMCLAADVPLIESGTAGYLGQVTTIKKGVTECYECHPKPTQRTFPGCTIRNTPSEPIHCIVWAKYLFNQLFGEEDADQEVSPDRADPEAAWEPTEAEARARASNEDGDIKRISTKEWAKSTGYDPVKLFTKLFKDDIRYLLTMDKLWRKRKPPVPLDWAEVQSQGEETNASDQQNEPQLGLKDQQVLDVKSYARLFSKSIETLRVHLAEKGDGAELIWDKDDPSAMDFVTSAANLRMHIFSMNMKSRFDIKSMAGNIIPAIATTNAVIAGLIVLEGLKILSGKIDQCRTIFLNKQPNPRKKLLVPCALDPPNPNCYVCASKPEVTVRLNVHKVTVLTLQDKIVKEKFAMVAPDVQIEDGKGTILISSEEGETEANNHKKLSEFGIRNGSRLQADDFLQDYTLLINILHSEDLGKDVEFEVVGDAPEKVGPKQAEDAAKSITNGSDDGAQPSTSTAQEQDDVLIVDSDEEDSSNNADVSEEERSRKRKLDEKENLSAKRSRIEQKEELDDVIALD
T1 sequence (Q9UBE0 1-346 partner): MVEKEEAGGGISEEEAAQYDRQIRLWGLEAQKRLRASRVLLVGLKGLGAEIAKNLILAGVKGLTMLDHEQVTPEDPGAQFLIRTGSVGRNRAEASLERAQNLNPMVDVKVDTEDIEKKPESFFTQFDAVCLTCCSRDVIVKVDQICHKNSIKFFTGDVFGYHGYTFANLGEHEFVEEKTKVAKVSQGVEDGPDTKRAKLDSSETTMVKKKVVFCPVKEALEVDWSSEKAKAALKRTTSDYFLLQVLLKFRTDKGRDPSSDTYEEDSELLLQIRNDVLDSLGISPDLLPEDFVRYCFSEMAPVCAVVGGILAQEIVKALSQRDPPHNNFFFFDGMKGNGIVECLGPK
Kind of assay: SUMO activity (Table I, biological activities). The format is biochemical. Details: key: + (less active); ++ (active); +++ (most active).

SMILES strings stand for the structures.

On to `CCN(CC)CCNC(=O)C1=C(C(=O)OC)C2(C(Cc3cccc(F)c3)Nc3cc(F)cc(F)c3)C=CC1O2` (centres unmarked) [Compound 436], for which, in assay [1], the c-Myc result was “++”. Besides, in assay [2], the SUMO result is “+++”.
The corresponding values for `CCOC(=O)C1=C(C(=O)NC2CCN(C)CC2)C2CCC1(C(Cc1ccccc1)Nc1ccc(F)cc1F)O2` (centres unmarked) [Compound 345] are “+” and “+”.
On to `CCN(CC)CCNC(=O)C1=C(C(=O)OC)C2(C(Cc3ccccc3)Nc3ccc(F)cc3)C=CC1O2` (centres unmarked) [Compound 375], for which the c-Myc entry in assay [1] was “+”. For the same compound, in assay [2], the SUMO entry is reported as “++”.
The corresponding values for `COC(=O)C1=C(C(=O)NC2CCN(C(=O)OC(C)(C)C)CC2)C2C=CC1(C(Cc1ccccc1)Nc1cc(F)cc(F)c1)O2` (centres unmarked) [Compound 242] are “+” and “++”.
The corresponding values for `O=C(C1=CC2(C3OCCO3)C=CC1O2)c1ccc(F)cc1` (centres unmarked) [Compound 523] are “+” and “++”.
The corresponding values for `COC(=O)C1=C(C(=O)NNc2ccc(F)c(F)c2)C2(C(Cc3ccccc3)Nc3cc(F)cc(F)c3)C=CC1O2` (centres unmarked) [Compound 315] are “+” and “++”.
With `COC(=O)C1=C(C(=O)NCCN(C)C)C2C=CC1(C(Cc1ccccc1)Oc1ccccc1)O2` (centres unmarked) [Compound 438], the c-Myc entry in assay [1] is “++”. Also, in assay [2], the SUMO result was “++”.
For the compound `C=CCCC(Nc1ccccc1)C12C=CC(O1)C(C(N)=O)=C2C(=O)OC` (centres unmarked) [Compound 177], in assay [1], the c-Myc entry is on record as “+”. For the same compound, the SUMO entry in assay [2] is “+”.
In the case of `COC(=O)C1=C(C(=O)NNc2ccccc2)C2C=CC1(C(Cc1ccccc1)Nc1cc(F)cc(Cl)c1)O2` (centres unmarked) [Compound 215], in assay [1], the c-Myc result is recorded as “+”. The SUMO entry in assay [2] is recorded as “++”.
The corresponding values for `CCOC(=O)C1=C(C(=O)NCCN(C)C)C2C=CC1(C(Cc1ccccc1)Nc1ccc(F)cc1F)O2` (centres unmarked) [Compound 411] are “+” and “++”.
The corresponding values for `COC(=O)C1=C(C(=O)NCCN(C)C)C2C=CC1(C(Cc1ccc(C(F)(F)F)cc1)Nc1ccccc1)O2` (centres unmarked) [Compound 423] are “++” and “++”.
Take `COC(=O)C1=C(C(=O)OC)C2(C(Nc3ccccc3)C3CCCC3)C=CC1O2` (centres unmarked) [Compound 186]: the c-Myc entry in assay [1] was “+”. In addition, the SUMO entry in assay [2] is listed as “++”.
The corresponding values for `COC(=O)C1=C(C(=O)NCCN(C)C)C2C=CC1(C(Cc1ccccc1)Nc1cc(F)cc(Cl)c1)O2` (centres unmarked) [Compound 227] are “+” and “+++”.
Turning to `COC(=O)C1=C(C(=O)NCCN2CCOCC2)C2C=CC1(C(Cc1ccccc1)Oc1ccccc1)O2` (centres unmarked) [Compound 326], the c-Myc entry in assay [1] was “++”. Moreover, the SUMO result in assay [2] is “++”.
As for `COC(=O)C1=C(C(=O)NC2CCN(C)CC2)C2C=CC1(C(Cc1ccccc1)Nc1ccccc1)O2` (centres unmarked) [Compound 195], in assay [1], the c-Myc entry is “++”. Further, the SUMO entry in assay [2] was “+++”.
The corresponding values for `COC(=O)C1=C(C(=O)NCCN(C)C)C2C=CC1(C(Cc1cccc(F)c1)Nc1cc(F)cc(F)c1)O2` (centres unmarked) [Compound 435] are “++” and “+++”.
On to `COC(=O)C1=C(C(=O)OC)C2(C(Cc3ccccc3)Nc3c(F)cccc3F)C=CC1O2` (centres unmarked) [Compound 169], for which the c-Myc entry in assay [1] is “+”. For the same compound, in assay [2], the SUMO entry is listed as “++”.
The corresponding values for `CCOC(=O)C1=C(C(=O)NC2CCN(C)CC2)C2C=CC1(C(Cc1ccccc1)Nc1ccc(F)cc1F)O2` (centres unmarked) [Compound 329] are “++” and “+++”.
The corresponding values for `CCOC(=O)C1=C(C(=O)Nc2ccccc2)C2C=CC1(C(Nc1ccccc1)c1ccc(CN3CCOCC3)cc1)O2` (centres unmarked) [Compound 604] are “+” and “++”.
The corresponding values for `CCOc1cccc(NC(Cc2ccccc2)C23C=CC(O2)C(C(=O)NCc2ccncc2)=C3C(=O)OC)c1` (centres unmarked) [Compound 254] are “+” and “++”.
With `COC(=O)C1=C(C(=O)NCc2ccncc2)C2C=CC1(C(Cc1ccccc1)Nc1cc(F)cc(Cl)c1)O2` (centres unmarked) [Compound 216], the c-Myc entry in assay [1] is given as “++”. The SUMO entry in assay [2] was “++”.
As for `COC(=O)C1=C(C(=O)N(C)CCN(C)C)C2C=CC1(C(Cc1ccccc1)Nc1ccccc1)O2` (centres unmarked) [Compound 388], in assay [1], the c-Myc result was “+”. The SUMO result in assay [2] is listed as “+”.
For `COC(=O)C1=C(C(=O)NCc2ccccn2)C2OC1(C(Cc1ccccc1)Oc1ccccc1)C1OC21` (centres unmarked) [Compound 547], the c-Myc result in assay [1] is “++”. Besides, in assay [2], the SUMO result is “++”.
With `COC(=O)C1=C(C(=O)OC)C2(C(Cc3ccc(Cl)cc3)Nc3cc(F)cc(F)c3)C=CC1O2` (centres unmarked) [Compound 425], the c-Myc entry in assay [1] is listed as “+”. In addition, the SUMO result in assay [2] is listed as “++”.
The corresponding values for `COC(=O)C1=C(C(=O)Nc2ccc(F)cc2)C2C=CC1(C(Cc1ccccc1)Nc1ccccc1)O2` (centres unmarked) [Compound 166] are “+” and “++”.
The corresponding values for `COC(=O)C1=C(C(=O)Nc2ccc(N3CCN(C)CC3)cc2)C2CCC1(C(Cc1ccccc1)Nc1ccccc1)O2` (centres unmarked) [Compound 371] are “+” and “+”.
The corresponding values for `COC(=O)C1=C(C(=O)NC2CN(C(=O)OC(C)(C)C)C2)C2C=CC1(C(Cc1ccccc1)Nc1ccccc1)O2` (centres unmarked) [Compound 404] are “+” and “++”.
With `CCOC(=O)C1=C(C(=O)NCCN(C)C)C2C=CC1(C(Nc1ccccc1)c1ccc(CN3CCOCC3)cc1)O2` (centres unmarked) [Compound 571], in assay [1], the c-Myc entry is listed as “+”. In assay [2], the SUMO result is given as “++”.
The corresponding values for `COC(=O)C1=C(C(=O)Nc2ccc(CN3CCCC3)cc2)C2C=CC1(C(Cc1ccccc1)Nc1ccccc1)O2` (centres unmarked) [Compound 508] are “+” and “++”.
The corresponding values for `CCOC(=O)C1=C(C(=O)Nc2ccc(OC)cc2OC)C2C=CC1(C(Nc1ccccc1)c1ccc(CN3CCOCC3)cc1)O2` (centres unmarked) [Compound 610] are “+” and “+”.
The corresponding values for `CCN(CC)CCNC(=O)C1=C(C(=O)OC)C2(C(Cc3ccc(C)cc3)Nc3cc(F)cc(F)c3)C=CC1O2` (centres unmarked) [Compound 429] are “++” and “++”.
On to `CCN(CC)CCNC(=O)C1=C(C(=O)OC)C2(C(Cc3ccccc3)Nc3cc(F)cc(F)c3)C=CC1O2` (centres unmarked) [Compound 400], for which the c-Myc result in assay [1] is listed as “++”. In addition, the SUMO entry in assay [2] is given as “++”.
For `COC(=O)C1=C(C(=O)NC2CCN(C(=O)NCC3CCCO3)CC2)C2C=CC1(C(Cc1ccccc1)Nc1ccccc1)O2` (centres unmarked) [Compound 382], the c-Myc result in assay [1] was “+”. Moreover, in assay [2], the SUMO entry is recorded as “++”.
The corresponding values for `CCOc1cccc(NC(Cc2ccccc2)C23C=CC(O2)C(C(=O)NC2CCN(C)CC2)=C3C(=O)OC)c1` (centres unmarked) [Compound 247] are “+” and “+++”.
The corresponding values for `COC(=O)C1=C(C(=O)NCCN2CCCC2)C2C=CC1(C(Cc1ccccc1)Nc1ccccc1)O2` (centres unmarked) [Compound 406] are “++” and “+++”.
The corresponding values for `COC(=O)C1=C(C(=O)Nc2ccc(C)c(F)c2)C2C=CC1(C(Cc1ccccc1)Nc1ccccc1F)O2` (centres unmarked) [Compound 351] are “+” and “+++”.
As for `CCOC(=O)C1=C(C(=O)Nc2ccccc2Oc2ccccc2)C2C=CC1(C(Nc1ccccc1)c1ccc(CN3CCOCC3)cc1)O2` (centres unmarked) [Compound 608], the c-Myc entry in assay [1] is “+”. Moreover, in assay [2], the SUMO result is “+”.
For the compound `COC(=O)C1=C(C(=O)NCCN(C)C)C2(C(Cc3ccccc3)Nc3cc(F)cc(F)c3)C=CC1O2` (centres unmarked) [Compound 401], the c-Myc result in assay [1] is on record as “++”. The SUMO entry in assay [2] is on record as “++”.
Take `COC(=O)C1=C(C(=O)NC2CCN(C(C)C)CC2)C2C=CC1(C(Cc1ccccc1)Oc1ccccc1)O2` (centres unmarked) [Compound 324]: in assay [1], the c-Myc result is listed as “++”. In assay [2], the SUMO entry is recorded as “++”.
For `COC(=O)C1=C(C(=O)O)C2(C(Cc3ccccc3)Nc3cc(F)cc(F)c3)C=CC1O2` (centres unmarked) [Compound 310], the c-Myc result in assay [1] is given as “+”. The SUMO result in assay [2] is recorded as “+”.
As for `COC(=O)C1=C(C(N)=O)C2C=CC1(C(Cc1ccccc1)Nc1cccc(Oc3ccccc3)c1)O2` (centres unmarked) [Compound 319], the c-Myc entry in assay [1] was “+”. For the same compound, the SUMO entry in assay [2] is on record as “+++”.
The corresponding values for `C=CCCC(Nc1ccccc1)C12C=CC(O1)C(C(=O)Nc1ccc(OC)cc1)=C2C(=O)OC` (centres unmarked) [Compound 176] are “+” and “++”.
The corresponding values for `COC(=O)C1=C(C(=O)OC)C2(C(Nc3ccccc3)C3CCC3)C=CC1O2` (centres unmarked) [Compound 184] are “+” and “++”.
